Reference: publication PMC5392334, “Discovery and characterization of a novel irreversible EGFR mutants selective and potent kinase inhibitor CHMFL-EGFR-26 with a distinct binding mode” (Oncotarget, 2017)

Assays:
[1] = molecular target: T1, LATS2 (Homo sapiens, UniProt Q9NRM7); assay: KinomeScan; format: binding; settings: read-out: % control
T1 construct: purchased DiscoveRx KINOMEscan

[2] = molecular target: T2, MAP4K4 (Homo sapiens, UniProt O95819); assay: KinomeScan; format: binding; settings: read-out: % control
T2 construct: purchased DiscoveRx KINOMEscan

[3] = test system: H1355(EGFR wt); assay: Anti-proliferation, NSCLC cell lines (CellTiter-Glo); format: cell-based; settings: Homo sapiens, NCI-H1355, 72 hours, triplet testing
Procedure: (§1) The human cancer cell lines H1975, HCC827, H2122, CHO, CHL and H1355 were purchased from the American Type Culture Collection (ATCC) (Manassas, VA, USA). PC9 cell line was purchased from the Sigma-Aldrich (St. Louis, MO, USA). A549, H3255 were purchased from Cobioer Biosciences CO., LTD (Nanjing, China). […] A549 and H1355 were cultured in F-12K Nutrient Mixture (kaighn's Modification) (Gibco, USA) with 10% FBS and supplemented with 2% L-glutamine and 1% pen/strep. H3255 was cultured in BEGM media (LONZA, USA) with 10% FBS and supplemented with 2% L-glutamine and 1% pen/strep.

[4] = test system: H2122 (EGFR wt); assay: as above; format: cell-based; settings: Homo sapiens, NCI-H2122, 72 hours, triplet testing
Procedure: as §1

[5] = test system: A549 (EGFR wt); assay: as above; format: cell-based; settings: Homo sapiens, 72 hours, triplet testing
Procedure: as §1

[6] = test system: H3255 (EGFRL858R); assay: as above; format: cell-based; settings: Homo sapiens, NCI-H3255, 72 hours, triplet testing
Procedure: as §1

[7] = test system: HCC827 (EGFR del19); assay: as above; format: cell-based; settings: Homo sapiens, 72 hours, triplet testing
Procedure: as §1

[8] = test system: PC-9 (EGFR del19); assay: as above; format: cell-based; settings: Homo sapiens, 72 hours, triplet testing
Procedure: as §1

[9] = test system: H1703 (EGFR wt); assay: as above; format: cell-based; settings: Homo sapiens, NCI-H1703, 72 hours, triplet testing
Procedure: as §1

[10] = molecular target: T3, MARK1 (Homo sapiens, UniProt Q9P0L2); assay: KinomeScan; format: binding; settings: read-out: % control
T3 construct: purchased DiscoveRx KINOMEscan

[11] = molecular target: T4, ABL1(T315I)-phosphorylated (Homo sapiens, UniProt P00519, T315I); assay: KinomeScan; format: binding; settings: read-out: % control
T4 construct: purchased DiscoveRx KINOMEscan

[12] = molecular target: T5, ERK8 (Homo sapiens, UniProt Q8TD08); assay: KinomeScan; format: binding; settings: read-out: % control
T5 construct: purchased DiscoveRx KINOMEscan

[13] = test system: NSCLC cell lines (H1975, HCC827, PC9, H3255; A549, H1355); assay: Cell cycle analysis; format: cell-based, human
Procedure: We then examined CHMFL-EGFR-26's effect on cell cycle progression and apoptosis.
The cells were fixed in 70% cold ethanol and incubated at −20 °C overnight then stained with PI/RNase staining buffer (BD Pharmingen). Flow cytometry was performed using a FACS Calibur (BD), and results were analyzed by ModFit software.

[14] = molecular target: T6, WNK1 (Homo sapiens, UniProt Q9H4A3); assay: KinomeScan; format: binding; settings: read-out: % control
T6 construct: purchased DiscoveRx KINOMEscan

[15] = molecular target: T7, CDKL3 (Homo sapiens, UniProt Q8IVW4); assay: KinomeScan; format: binding; settings: read-out: % control
T7 construct: purchased DiscoveRx KINOMEscan

[16] = molecular target: T8, ARK5 (Homo sapiens, UniProt O60285); assay: KinomeScan; format: binding; settings: read-out: % control
T8 construct: purchased DiscoveRx KINOMEscan

[17] = molecular target: T9, PIK3CA(E545A) (Homo sapiens, UniProt P42336, E545A); assay: KinomeScan; format: binding; settings: read-out: % control
T9 construct: purchased DiscoveRx KINOMEscan

[18] = molecular target: T10, CAMK2G (Homo sapiens, UniProt Q13555); assay: KinomeScan; format: binding; settings: read-out: % control
T10 construct: purchased DiscoveRx KINOMEscan

[19] = molecular target: T11, MLK2 (Homo sapiens, UniProt Q02779); assay: KinomeScan; format: binding; settings: read-out: % control
T11 construct: purchased DiscoveRx KINOMEscan

[20] = molecular target: T12, STK35 (Homo sapiens, UniProt Q8TDR2); assay: KinomeScan; format: binding; settings: read-out: % control
T12 construct: purchased DiscoveRx KINOMEscan

[21] = molecular target: T13, BTK (Homo sapiens, UniProt Q06187); assay: KinomeScan; format: binding; settings: read-out: % control
T13 construct: purchased Invitrogen (SelectScreen service)

[22] = molecular target: T14, CDK4 (Homo sapiens, UniProt P11802); assay: KinomeScan; format: binding; settings: read-out: % control
T14 construct: purchased DiscoveRx KINOMEscan

[23] = molecular target: T15, PRP4 (Homo sapiens, UniProt Q13523); assay: KinomeScan; format: binding; settings: read-out: % control
T15 construct: purchased DiscoveRx KINOMEscan

[24] = test system: BaF3-FL-EGFR-del19-T790M-C797S; assay: Anti-proliferation, BaF3 isogenic cell lines (CellTiter-Glo); format: cell-based; settings: Mus musculus, 72 hours, triplet testing
[25] = molecular target: T16, PKAC-beta (Homo sapiens, UniProt P22694); assay: KinomeScan; format: binding; settings: read-out: % control
T16 construct: purchased DiscoveRx KINOMEscan

[26] = molecular target: T17, MEK6 (Homo sapiens, UniProt P52564); assay: KinomeScan; format: binding; settings: read-out: % control
T17 construct: purchased DiscoveRx KINOMEscan

[27] = molecular target: T18, TNNI3K (Homo sapiens, UniProt Q59H18); assay: KinomeScan; format: binding; settings: read-out: % control
T18 construct: purchased DiscoveRx KINOMEscan

[28] = molecular target: T19, PRKD3 (Homo sapiens, UniProt O94806); assay: KinomeScan; format: binding; settings: read-out: % control
T19 construct: purchased DiscoveRx KINOMEscan

[29] = molecular target: T20, DRAK2 (Homo sapiens, UniProt O94768); assay: KinomeScan; format: binding; settings: read-out: % control
T20 construct: purchased DiscoveRx KINOMEscan

[30] = molecular target: T21, TYK2(JH2domain-pseudokinase) (Homo sapiens, UniProt P29597); assay: KinomeScan; format: binding; settings: read-out: % control
T21 construct: TYK2(JH2domain-pseudokinase); purchased DiscoveRx KINOMEscan

[31] = molecular target: T22, AXL (Homo sapiens, UniProt P30530); assay: KinomeScan; format: binding; settings: read-out: % control
T22 construct: purchased DiscoveRx KINOMEscan

[32] = molecular target: T23, EPHA1 (Homo sapiens, UniProt P21709); assay: KinomeScan; format: binding; settings: read-out: % control
T23 construct: purchased DiscoveRx KINOMEscan

[33] = molecular target: T24, CIT (Homo sapiens, UniProt O14578); assay: KinomeScan; format: binding; settings: read-out: % control
T24 construct: purchased DiscoveRx KINOMEscan

[34] = molecular target: T25, EGFR(L858R,T790M) (Homo sapiens, UniProt P00533, L858R/T790M); assay: KinomeScan; format: binding; settings: read-out: % control
T25 construct: purchased DiscoveRx KINOMEscan

[35] = molecular target: T26, DDR2 (Homo sapiens, UniProt Q16832); assay: KinomeScan; format: binding; settings: read-out: % control
T26 construct: purchased DiscoveRx KINOMEscan

T7 sequence (Q8IVW4 whole entry): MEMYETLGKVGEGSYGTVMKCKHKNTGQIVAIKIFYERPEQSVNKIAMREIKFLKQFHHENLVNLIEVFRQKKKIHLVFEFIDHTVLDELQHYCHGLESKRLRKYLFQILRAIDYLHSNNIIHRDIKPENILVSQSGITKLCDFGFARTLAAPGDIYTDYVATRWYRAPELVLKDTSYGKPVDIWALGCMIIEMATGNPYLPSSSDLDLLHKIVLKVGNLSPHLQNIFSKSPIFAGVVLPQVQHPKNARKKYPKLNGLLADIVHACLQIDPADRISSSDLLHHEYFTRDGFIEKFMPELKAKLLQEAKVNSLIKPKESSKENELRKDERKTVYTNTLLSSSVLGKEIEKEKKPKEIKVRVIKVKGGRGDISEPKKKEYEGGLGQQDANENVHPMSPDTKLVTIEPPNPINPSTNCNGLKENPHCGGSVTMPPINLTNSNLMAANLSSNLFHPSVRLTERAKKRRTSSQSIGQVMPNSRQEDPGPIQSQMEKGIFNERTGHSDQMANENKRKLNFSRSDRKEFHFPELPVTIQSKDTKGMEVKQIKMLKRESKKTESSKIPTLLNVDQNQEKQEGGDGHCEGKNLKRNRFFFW
T18 sequence (Q59H18 whole entry): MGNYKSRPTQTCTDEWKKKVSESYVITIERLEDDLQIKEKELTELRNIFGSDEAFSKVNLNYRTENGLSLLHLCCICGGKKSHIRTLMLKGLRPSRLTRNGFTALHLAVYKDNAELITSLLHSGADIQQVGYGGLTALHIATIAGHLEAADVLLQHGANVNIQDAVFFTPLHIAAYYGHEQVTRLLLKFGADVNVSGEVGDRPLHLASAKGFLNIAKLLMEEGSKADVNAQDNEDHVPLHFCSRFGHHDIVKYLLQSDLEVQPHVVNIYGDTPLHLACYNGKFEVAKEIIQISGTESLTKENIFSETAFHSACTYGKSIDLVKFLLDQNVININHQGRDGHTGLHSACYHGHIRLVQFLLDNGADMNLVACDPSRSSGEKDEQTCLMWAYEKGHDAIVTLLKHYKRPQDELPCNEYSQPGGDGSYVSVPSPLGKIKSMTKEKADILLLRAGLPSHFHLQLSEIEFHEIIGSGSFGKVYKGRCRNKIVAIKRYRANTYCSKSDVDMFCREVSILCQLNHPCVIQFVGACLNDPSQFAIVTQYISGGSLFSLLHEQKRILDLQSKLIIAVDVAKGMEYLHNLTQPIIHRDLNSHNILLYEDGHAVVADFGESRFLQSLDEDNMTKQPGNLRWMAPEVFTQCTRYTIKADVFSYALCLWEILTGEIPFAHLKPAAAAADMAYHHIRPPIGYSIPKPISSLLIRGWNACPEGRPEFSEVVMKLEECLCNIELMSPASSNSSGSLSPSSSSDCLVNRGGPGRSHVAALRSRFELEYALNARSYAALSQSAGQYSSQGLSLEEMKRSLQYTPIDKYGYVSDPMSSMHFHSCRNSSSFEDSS
T20 sequence (O94768 whole entry): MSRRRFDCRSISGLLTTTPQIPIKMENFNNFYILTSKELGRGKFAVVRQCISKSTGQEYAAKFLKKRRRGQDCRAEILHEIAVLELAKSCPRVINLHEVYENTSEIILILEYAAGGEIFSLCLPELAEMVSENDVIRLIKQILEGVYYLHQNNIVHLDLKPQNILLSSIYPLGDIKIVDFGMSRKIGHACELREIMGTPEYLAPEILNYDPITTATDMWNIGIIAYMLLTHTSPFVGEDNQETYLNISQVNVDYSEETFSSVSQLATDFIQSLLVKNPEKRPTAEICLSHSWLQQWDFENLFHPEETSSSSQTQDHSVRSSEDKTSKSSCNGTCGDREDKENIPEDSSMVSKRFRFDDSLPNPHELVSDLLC
T12 sequence (Q8TDR2 whole entry): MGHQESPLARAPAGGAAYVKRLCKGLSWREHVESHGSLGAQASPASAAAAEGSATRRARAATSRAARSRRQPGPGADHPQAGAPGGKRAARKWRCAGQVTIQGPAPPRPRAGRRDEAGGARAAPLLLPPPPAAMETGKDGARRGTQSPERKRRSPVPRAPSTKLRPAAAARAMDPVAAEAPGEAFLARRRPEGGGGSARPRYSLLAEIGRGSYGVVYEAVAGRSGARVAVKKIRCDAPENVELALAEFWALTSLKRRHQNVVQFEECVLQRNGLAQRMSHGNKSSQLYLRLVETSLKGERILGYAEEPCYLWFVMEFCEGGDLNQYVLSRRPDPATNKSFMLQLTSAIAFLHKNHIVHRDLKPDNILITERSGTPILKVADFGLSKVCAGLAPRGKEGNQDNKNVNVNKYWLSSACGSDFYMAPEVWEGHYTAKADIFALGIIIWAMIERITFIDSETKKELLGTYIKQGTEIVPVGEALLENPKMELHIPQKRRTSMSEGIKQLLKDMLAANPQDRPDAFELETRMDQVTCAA
T15 sequence (Q13523 whole entry): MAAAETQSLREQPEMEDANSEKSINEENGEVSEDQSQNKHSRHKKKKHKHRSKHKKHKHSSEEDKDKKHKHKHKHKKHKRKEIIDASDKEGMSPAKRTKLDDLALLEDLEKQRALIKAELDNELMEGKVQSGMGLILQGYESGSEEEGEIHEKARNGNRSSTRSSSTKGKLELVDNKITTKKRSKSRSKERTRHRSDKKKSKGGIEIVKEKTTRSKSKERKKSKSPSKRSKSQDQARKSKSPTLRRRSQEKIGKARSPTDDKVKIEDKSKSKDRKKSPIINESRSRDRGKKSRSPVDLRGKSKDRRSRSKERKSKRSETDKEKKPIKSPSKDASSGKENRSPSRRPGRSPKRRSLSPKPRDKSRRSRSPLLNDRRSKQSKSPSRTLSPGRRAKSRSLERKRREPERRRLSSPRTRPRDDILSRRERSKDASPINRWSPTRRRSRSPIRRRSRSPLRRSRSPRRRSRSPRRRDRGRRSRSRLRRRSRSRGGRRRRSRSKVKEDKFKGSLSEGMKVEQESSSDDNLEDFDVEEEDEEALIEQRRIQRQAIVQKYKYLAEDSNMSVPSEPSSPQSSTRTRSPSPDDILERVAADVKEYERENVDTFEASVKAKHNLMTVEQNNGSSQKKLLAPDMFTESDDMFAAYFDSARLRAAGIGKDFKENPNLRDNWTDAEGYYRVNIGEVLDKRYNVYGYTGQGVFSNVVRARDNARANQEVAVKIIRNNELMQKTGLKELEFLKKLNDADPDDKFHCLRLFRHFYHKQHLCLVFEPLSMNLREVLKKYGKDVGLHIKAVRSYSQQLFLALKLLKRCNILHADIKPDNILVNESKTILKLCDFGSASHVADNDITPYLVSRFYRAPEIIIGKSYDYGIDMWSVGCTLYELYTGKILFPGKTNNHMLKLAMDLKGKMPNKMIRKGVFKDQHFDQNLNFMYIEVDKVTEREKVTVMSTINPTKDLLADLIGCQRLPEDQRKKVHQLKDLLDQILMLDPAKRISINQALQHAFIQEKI
T21 sequence (P29597 556-888 limits assumed): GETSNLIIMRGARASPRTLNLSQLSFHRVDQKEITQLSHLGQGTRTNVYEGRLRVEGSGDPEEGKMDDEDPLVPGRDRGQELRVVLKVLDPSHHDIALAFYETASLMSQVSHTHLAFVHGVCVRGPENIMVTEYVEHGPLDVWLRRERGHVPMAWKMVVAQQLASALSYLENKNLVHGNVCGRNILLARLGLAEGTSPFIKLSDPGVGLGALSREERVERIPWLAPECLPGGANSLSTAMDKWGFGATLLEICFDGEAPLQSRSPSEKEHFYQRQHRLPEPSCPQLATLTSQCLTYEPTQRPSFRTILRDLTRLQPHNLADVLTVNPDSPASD
T11 sequence (Q02779 whole entry): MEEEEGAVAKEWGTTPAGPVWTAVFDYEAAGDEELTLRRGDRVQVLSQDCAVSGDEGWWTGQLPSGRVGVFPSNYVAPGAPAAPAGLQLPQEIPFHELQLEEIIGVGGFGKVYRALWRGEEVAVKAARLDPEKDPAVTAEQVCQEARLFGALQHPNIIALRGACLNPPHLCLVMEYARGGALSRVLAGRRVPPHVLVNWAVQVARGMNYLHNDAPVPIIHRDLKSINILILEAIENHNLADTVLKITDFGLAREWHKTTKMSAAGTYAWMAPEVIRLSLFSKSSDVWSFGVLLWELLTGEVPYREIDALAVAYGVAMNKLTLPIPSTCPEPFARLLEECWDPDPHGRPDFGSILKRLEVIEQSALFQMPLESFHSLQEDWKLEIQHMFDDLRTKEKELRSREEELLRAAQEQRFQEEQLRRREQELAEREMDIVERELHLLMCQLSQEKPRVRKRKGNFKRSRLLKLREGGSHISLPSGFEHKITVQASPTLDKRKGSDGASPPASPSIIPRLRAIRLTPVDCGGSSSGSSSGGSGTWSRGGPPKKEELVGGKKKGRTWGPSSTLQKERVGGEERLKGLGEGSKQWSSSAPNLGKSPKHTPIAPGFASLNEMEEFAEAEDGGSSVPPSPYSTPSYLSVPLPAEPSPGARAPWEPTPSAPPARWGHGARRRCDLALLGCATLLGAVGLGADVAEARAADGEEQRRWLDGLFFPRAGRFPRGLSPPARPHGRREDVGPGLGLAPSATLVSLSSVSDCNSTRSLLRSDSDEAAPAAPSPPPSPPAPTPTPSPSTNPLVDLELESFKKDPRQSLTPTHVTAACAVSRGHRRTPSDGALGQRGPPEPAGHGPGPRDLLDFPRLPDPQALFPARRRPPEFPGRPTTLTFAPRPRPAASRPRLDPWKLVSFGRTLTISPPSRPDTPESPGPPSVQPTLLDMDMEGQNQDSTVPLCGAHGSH
T17 sequence (P52564 whole entry): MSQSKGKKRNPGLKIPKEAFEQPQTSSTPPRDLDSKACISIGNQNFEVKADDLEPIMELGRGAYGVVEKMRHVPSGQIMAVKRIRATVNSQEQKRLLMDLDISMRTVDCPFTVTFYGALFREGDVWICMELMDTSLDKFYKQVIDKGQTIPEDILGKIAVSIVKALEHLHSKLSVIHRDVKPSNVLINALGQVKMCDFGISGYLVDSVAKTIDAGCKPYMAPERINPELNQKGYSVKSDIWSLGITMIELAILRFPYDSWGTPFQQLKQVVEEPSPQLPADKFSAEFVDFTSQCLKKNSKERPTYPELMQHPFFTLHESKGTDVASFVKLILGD

## C=CC(=O)N1CCC[C@@H](n2nc(-c3ccc(OCc4cccc(C)n4)c(Cl)c3)c3c(N)ncnc32)C1 [CHMFL-EGFR-26]
[1]
  remaining binding at 1 µM: 96%
[2]
  remaining binding at 1 µM: 46%
[3]
  GI50: 8100 nM
[4]
  GI50: 3500 nM
[5]
  GI50: 5400 nM
[6]
  GI50: 27 nM
[7]
  GI50: 36 nM
[8]
  GI50: 35 nM
[9]
  GI50: 7700 nM
[10]
  remaining binding at 1 µM: 100%
[11]
  remaining binding at 1 µM: 98%
[12]
  remaining binding at 1 µM: 91%
[13]; H1975, HCC827, PC9 and H3255 (EGFR mutants), 24-hour
  cell cycle progression: dramatically blocked cell cycle at G0/G1 phase
[13]; wild-type EGFR lines A549 and H1355, up to 3 μM, 72-hour
  cell cycle progression: did not cause cell cycle arrest
[14]
  remaining binding at 1 µM: 100%
[15]
  remaining binding at 1 µM: 97%
[16]
  remaining binding at 1 µM: 77%
[17]
  remaining binding at 1 µM: 100%
[18]
  remaining binding at 1 µM: 95%
[19]
  remaining binding at 1 µM: 80%
[20]
  remaining binding at 1 µM: 23%
[21]
  remaining binding at 1 µM: 0.45%
[22]
  remaining binding at 1 µM: 100%
[23]
  remaining binding at 1 µM: 78%
[24]
  GI50: 2100 nM
[25]
  remaining binding at 1 µM: 14%
[26]
  remaining binding at 1 µM: 95%
[27]
  remaining binding at 1 µM: 89%
[28]
  remaining binding at 1 µM: 92%
[29]
  remaining binding at 1 µM: 91%
[30]
  remaining binding at 1 µM: 97%
[31]
  remaining binding at 1 µM: 83%
[32]
  remaining binding at 1 µM: 42%
[33]
  remaining binding at 1 µM: 90%
[34]
  remaining binding at 1 µM: 2.8%
[35]
  remaining binding at 1 µM: 90%
